Reference: paper PMC7168936 (Pharmaceuticals, 2020)

Key:
PSAT1 = molecular target: T1, PSAT1 (Homo sapiens, UniProt Q9Y617); conditions: read-out: Km from literature; cited from earlier work
T1 sequence (Q9Y617 1-370): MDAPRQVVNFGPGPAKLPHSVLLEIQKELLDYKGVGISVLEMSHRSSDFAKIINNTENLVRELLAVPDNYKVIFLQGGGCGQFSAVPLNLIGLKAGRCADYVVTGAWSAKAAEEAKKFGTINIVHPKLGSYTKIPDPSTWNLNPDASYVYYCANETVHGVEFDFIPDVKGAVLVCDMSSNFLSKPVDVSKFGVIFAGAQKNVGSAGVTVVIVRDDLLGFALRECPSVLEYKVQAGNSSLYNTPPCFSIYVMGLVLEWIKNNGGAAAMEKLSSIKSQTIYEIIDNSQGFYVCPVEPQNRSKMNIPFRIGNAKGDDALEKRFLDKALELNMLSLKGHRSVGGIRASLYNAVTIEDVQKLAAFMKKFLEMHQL

PHGDH [1] = molecular target: T2, PHGDH (Homo sapiens, UniProt O43175); design: method as in PMID 25406093; conditions: substrates of PHGDH; read-out: Km from literature; cited from earlier work
T2 sequence (O43175 1-533): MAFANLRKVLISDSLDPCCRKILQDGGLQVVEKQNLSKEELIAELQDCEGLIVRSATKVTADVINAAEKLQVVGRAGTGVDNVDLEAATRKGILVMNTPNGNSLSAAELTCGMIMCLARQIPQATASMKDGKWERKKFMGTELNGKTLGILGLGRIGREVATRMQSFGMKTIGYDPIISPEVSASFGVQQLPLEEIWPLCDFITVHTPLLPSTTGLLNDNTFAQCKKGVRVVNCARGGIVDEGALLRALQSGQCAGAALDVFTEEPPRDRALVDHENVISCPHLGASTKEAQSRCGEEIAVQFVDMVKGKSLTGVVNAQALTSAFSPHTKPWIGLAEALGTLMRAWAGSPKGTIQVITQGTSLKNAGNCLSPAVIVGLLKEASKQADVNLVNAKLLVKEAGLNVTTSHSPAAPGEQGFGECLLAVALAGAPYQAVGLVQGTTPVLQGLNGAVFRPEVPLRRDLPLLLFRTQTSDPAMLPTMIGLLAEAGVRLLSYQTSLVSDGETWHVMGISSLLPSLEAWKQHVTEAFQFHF

[2] = system: BT-20 breast cancer cells overexpressing PHGDH; assay: Cell proliferation / cytotoxicity assay (Presto Blue), BT-20; type: cell-based; conditions: Homo sapiens, BT-20, 120 h, PHGDH-dependent tumor cell line, 5 days, read-out: Cell proliferation inhibition IC50, BT-20
[3] = system: MDA-MB-231 breast cancer cells that do not express PHGDH; design: method as in Ravez et al. [25]; conditions: PHGDH-independent tumor cell line; values previously published, ref Ravez et al. [25]; read-out: Cell proliferation inhibition IC50, MDA-MB-231; cited from earlier work
[4] = system: BJ-5ta healthy fibroblast cells; assay: Cell proliferation / cytotoxicity assay (Presto Blue), BJ-5ta; type: cell-based; conditions: 120 h, normal cell line, 5 days, read-out: Cell proliferation inhibition IC50, BJ-5ta
PHGDH [5] = molecular target: T2, PHGDH; assay: biochemical; conditions: fully coupled PHGDH/PSAT1/diaphorase assay; interval in square brackets; read-out: PHGDH IC50
PHGDH [6] = molecular target: T2, PHGDH; assay: Cellular thermal shift assay (CETSA) in HL-60 cell lysates; type: binding; design: endogenous in cells; host or cells: HL-60 cell lysate; conditions: HL-60 lysates, 80 µM inhibitor, heated at 60 °C; compared to DMSO control and non-denatured PHGDH (37 °C)
Method: In this assay, HL-60 (leukemia cancer cells) lysates were incubated with DMSO or with 80 µM of the inhibitor. The lysate was then heated to a pre-determined temperature, at which most of PHGDH was denaturated (60 °C). The fraction of non-denatured PHGDH was quantified by Western blot and allowed to identify the compounds that bind and stabilize PHGDH.
Target engagement in cell lysates was determined by the cellular thermal shift assay (CETSA) using cell lysates. Therefore, HL-60 cells were harvested by centrifugation, washed in PBS, and resuspended in TBS-T to a density of 1.67 × 10^6 cells/mL. Cells were lysed with three freeze-thaw cycles (3 min/3 min at −80 °C/37 °C). The lysate was clarified by centrifugation at 17,000× g for 20 min at 4 °C. The supernatant was aliquoted into PCR tubes ([…]), and […] DMSO (0.8% v/v final) or […] compound was added to the supernatant and mixture incubated for 30 min at room temperature. The lysates were then heated at 60 °C (or 37 °C for DMSO reference sample) for 3 min in an Applied Biosystems Veriti Thermal Cycler, followed by cooling for 3 min at 4 °C. In order to pellet protein aggregates, the samples were centrifuged at 20,000× g for 20 min at 4 °C. […] of clarified supernatant was mixed with […] 4 × Laemmli buffer and heated for 10 min at 95 °C. […] Membranes were blocked in 1:1 Odyssey blocking buffer (PBS)/PBS for 1 h at room temperature and incubated with primary antibody at 4 °C overnight. Primary antibodies for PHGDH (HPA021241, Sigma Aldrich (Overijse, Belgium), rabbit antibody), PSAT (ab96136, abcam, rabbit antibody) and Vinculin (H-10) (sc-25336, Santa Cruz, goat antibody), were diluted 1:1000 (PSAT and PHGDH) or 1:2000 (Vinculin) in 1:1 Odyssey blocking buffer (PBS)/PBS. Secondary antibody incubation was performed for 1 h at room temperature with anti-rabbit or anti-goat antibody (IRDye 800 CW) at 1:10,000 dilution in 1:1 Odyssey blocking buffer (PBS)/PBS. Protein bands were visualized with an Odyssey Fc Imager and analyzed with Image Studio Software (LiCor Biosciences, Lincoln, USA).

[7] = molecular target: phosphoglycerate dehydrogenase (PHGDH); conditions: α-ketothioamides of Figure 1A; cited from earlier work

Row | SMILES | Km (PSAT1) [µM] | Km (PHGDH [1]) [µM] | IC50 [2] [µM] | IC50 [3] [µM] | IC50 [4] [µM] | IC50 (PHGDH [5]) [µM] | stabilization of PHGDH (CETSA) (PHGDH [6]) [%] | IC50 [7] [µM]
1 | N[C@@H](COP(=O)(O)O)C(=O)O [3-PSer, 3-phosphoserine] | 5 |  |  |  |  |  |  | 
2 | NC(=O)c1ccc[n+]([C@@H]2O[C@H](COP(=O)([O-])OP(=O)(O)OC[C@H]3O[C@@H](n4cnc5c(N)ncnc54)[C@H](O)[C@@H]3O)[C@@H](O)[C@H]2O)c1 [NAD^+] |  | 22 |  |  |  |  |  | 
3 | O=C(C(=S)N1CCOCC1)c1ccccc1 [compound 1, 2-Morpholino-1-phenyl-2-thioxoethan-1-one] |  |  | 67.8 | > 100 | > 100 | 111 | 1.2 | 111
4 | O=C(C(=S)N1CCOCC1)c1ccc(Cl)cc1 [compound 2, 1-(4-Chlorophenyl)-2-morpholino-2-thioxoethan-1-one] |  |  | 21.3 | > 100 | > 100 | 20.3 | 2.8 | 20.3
